Literature values in US20110208161A1, “INT[…] […] TO THE CENTRAL NERVOUS SYSTEM” (priority 2009, published 2011).
Where a SMILES comes first, the peptide text is derived from it.

Target: T1, μ receptor (Oryctolagus cuniculus, UniProt G1TAQ8)
T1 construct: host or cells: brain tissue at the fourth ventricle, in vivo
Settings: infusion into the fourth ventricle

T1 sequence (G1TAQ8 1-401): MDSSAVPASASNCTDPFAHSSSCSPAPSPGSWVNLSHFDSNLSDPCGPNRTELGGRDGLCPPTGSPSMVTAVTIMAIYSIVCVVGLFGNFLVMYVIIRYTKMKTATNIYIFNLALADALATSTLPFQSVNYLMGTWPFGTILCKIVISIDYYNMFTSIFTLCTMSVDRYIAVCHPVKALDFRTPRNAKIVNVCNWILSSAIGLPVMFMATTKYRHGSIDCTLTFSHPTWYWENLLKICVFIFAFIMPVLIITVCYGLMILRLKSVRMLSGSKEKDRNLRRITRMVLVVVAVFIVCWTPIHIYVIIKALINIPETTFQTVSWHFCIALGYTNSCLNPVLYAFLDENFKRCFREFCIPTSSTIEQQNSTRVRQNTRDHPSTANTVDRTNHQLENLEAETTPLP

NC(=O)[C@@H]1CCCN1C(=O)[C@H](Cc1ccccc1)NC(=O)[C@@H]1CCCN1C(=O)[C@@H](N)Cc1ccc(O)cc1 [morphiceptin] (H-YPFP-NH2)
effect on spinal cord nociceptive transmission: attenuate spinal cord nociceptive transmission
